Experiments:
DENV = type: cell-based, Dengue virus
VEEV Trinidad virus = type: cell-based, Venezuelan Equine Encephalitis virus
LASV = type: cell-based, Lhasa virus
WNV = type: cell-based, West Nile virus
RVFV = type: cell-based, Rift Valley Fever virus
Marburg virus = tested on: Marburg virus; design: species or system mice; conditions: mouse, in vivo, ip
EEEV = type: cell-based, Easter Equine Encephalitis virus
EBOV [1] = tested on: EBOV; design: species or system mice; conditions: mouse, in vivo, ip
PTV = type: cell-based, Punta Toro Virus
EBOV [2] = type: cell-based, Ebola virus
WEEV = type: cell-based, Wester Equine Encephalitis virus
HCV = type: cell-based, hepatitis C virus
CHK = type: cell-based, chikungunya virus

Compound	EC99 DENV (DENV) [µM]	EC99 VEEV (VEEV Trinidad virus) [µM]	EC99 LASV (LASV) [µM]	EC99 WNV (WNV) [µM]	EC99 RVFV (RVFV) [µM]	further results
CN(C)c1ccc2nc3ccc(N)cc3[s+]c2c1.[Cl-] [Azure A]	1	0.1 to 1	–	–	–	–
CNc1ccc2nc3ccc(N)cc3[s+]c2c1.[Cl-] [Azure C]	<1	0.1	–	–	–	–
CN(C)c1cc(F)c2nc3c(F)cc(=[N+](C)C)cc-3sc2c1 [Compound 3]	–	<1	>5	1	>5	–
CN(C)c1cc(Cl)c2nc3c(Cl)cc(=[N+](C)C)cc-3sc2c1 [Compound 4]	–	<1	<5	<1	0.05	–
Cc1cc(=[N+](C)C)cc2sc3cc(N(C)C)cc(C)c3nc1-2.[Cl-] [Dimethyl MB, dimethylmethylene blue]	–	0.02 to 0.1	<1	0.025 to 0.1	<10	day by which surviving mice had recovered, Marburg (Marburg virus): ≤ 9 days; prophylaxis of study group against Marburg (Marburg virus): 60%; EC99 EEEV (EEEV): <0.1 µM; prophylaxis of study group against EBOV (EBOV [1]): complete prophylaxis; survival, EBOV (EBOV [1]): 100%; EC99 PTV (PTV): 5 µM; EC99 EBOV (EBOV [2]): 0.025 to 0.1 µM; EC99 WEEV (WEEV): 0.1 µM; EC99 HCV (HCV): 0.2 to 0.5 µM; EC99 CHK (CHK): 0.1 to 1 µM
CN(C)c1ccc2nc3ccc(=[N+](C)C)cc-3sc2c1 [Methylene Blue (MB), Methylene Blue]	10	<1	–	<1	>5	EC99 EEEV (EEEV): 1 µM; EC99 EBOV (EBOV [2]): >3.2 µM; EC99 WEEV (WEEV): 1 µM; EC99 HCV (HCV): 0.02 to 0.08 µM; EC99 CHK (CHK): 1 µM
Cc1cc2nc3ccc(N(C)C)cc3[s+]c2cc1N.[Cl-] [Toluidine Blue]	1	<10	–	–	–	–
Azure B	1	0.1 to 1	–	–	–	–

Reference: patent US8227459B2, “Diamino-phenothiazinyl derivatives as antiviral treatments” (priority 2007, dated 2012)
